Our source for the normalised viability and normalised response values is the supplement of paper PMC4862054.

“And” between values parts separate entries of the source, which are not always exact repeats. Equal values may be shown once.

Holding throughout (conditions): incubation time: 72 h
The test system of test [1] is MDA-MB-231. The test is described as follows: normalised viability (% of control), CellTiter-Blue; higher = more viable cells (about 100 = DMSO control). As to the method: (§1)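 DSRT, CellTiter-Blue viability, 72 h incubation. Signal is normalised to DMSO and benzethonium chloride controls. Value is the normalised response at dose 3.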
(Alamar Blue is a resazurin reagent that responds to reducing activity.)

Test [2] deals with Hs578T. The description is as above. The protocol:
as §1

The test system of test [3] is HCC1599. The description is as above. The protocol: as §1
The subject of test [4] is CAL-85-1. Described as above. As to the method:
as §1

Test [5] concerns SK-BR-3. Described as above. As to the method: as §1
Test [6] has as its system HCC1937. The test is described as above. The protocol:
as §1

Test [7] has as its system CAL-51. Described as above. The protocol: as §1
For test [8], the system named is HDQ-P1. The description is as above. The protocol: as §1
Test [9] deals with DU-4475. Described as above. The protocol:
as §1

Test [10] concerns MDA-MB-453. The test is described as above. The protocol: as §1
Test [11] has as its system MDA-MB-436. Described as above. The protocol:
as §1

Test [12] relates to CAL-148. The description is as above. The protocol:
as §1

Test [13] deals with BT-474. Described as above. As to the method: as §1
In test [14] the test system is CAL-120. The test is described as above. The protocol:
as §1

Test [15] concerns MDA-MB-231. Briefly: normalised response (% of control), CellTox Green; higher = less cell death (100 = DMSO, 0 = benzethonium chloride kill control). A digest of the protocol: (§2)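 CellTox Green fluorescence (485/520 nm) and, after 10 min at room temperature, CellTiter-Glo luminescence were read from breast cancer cell lines incubated 72 h in 384-well plates. Cells were seeded as 20 µl suspension onto compound at 5 concentrations in 10-fold steps over a 10,000-fold range chosen per compound. Each plate was normalised to 0.1 % DMSO (100) and a positive kill control (0). Values are normalised signals, one per concentration.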

Test [16] relates to MDA-MB-468. Described as above. The procedure, abridged:
as §2

The subject of test [17] is HCC1599. The description is as above. A digest of the protocol: as §2
In test [18] the test system is CAL-85-1. Described as above. The procedure, abridged: as §2
The test system of test [19] is HCC1937. The description is as above. The procedure, abridged: as §2
Test [20] relates to CAL-51. The description is as above. A digest of the protocol:
as §2

The test system of test [21] is HDQ-P1. The test is described as above. A digest of the protocol:
as §2

The test system of test [22] is DU-4475. The description is as above. The procedure, abridged: as §2
Test [23] deals with MFM-223. The description is as above. A digest of the protocol:
as §2

Test [24] relates to MDA-MB-453. Described as above. The procedure, abridged:
as §2

Test [25] relates to HCC1143. Described as above. The procedure, abridged: as §2
In test [26] the test system is MDA-MB-436. The description is as above. A digest of the protocol:
as §2

Test [27] relates to CAL-148. Described as above. A digest of the protocol: as §2
Test [28] relates to MCF-10A. The test is described as above. A digest of the protocol: as §2
The test system of test [29] is BT-474. Described as above. A digest of the protocol: as §2
The test system of test [30] is BT-549. The test is described as above. The procedure, abridged: as §2
Test [31] has as its system CAL-120. Described as above. A digest of the protocol: as §2

With `COc1ccc(-c2cc3c(C)nc(N)nc3n([C@H]3CC[C@H](OCCO)CC3)c2=O)cn1`, the normalised viability in test [1] (100 nM) is 63.2%; in test [2] (100 nM), 60.5%; in [3] (100 nM), 73.6%; in test [4] (10 nM), 95.3%; in test [5] (100 nM), 32.9%; in [6] (100 nM), 65.8%. In addition, the normalised viability in test [7] (10 nM) worked out at 93.3%; in test [8] (10 nM), 82%; in [9] (10 nM) it was 103%; in test [10] (10 nM), 86.2%; in test [11] (100 nM), 80.6%; in test [12] (10 nM) it was 98.1%. The values for the normalised viability in test [13] (100 nM) and in test [14] (100 nM) were 67.8% and 74.9%, respectively.

For the molecule `Cc1cccc(-c2nn3c(c2-c2ccnc4ccc(C(N)=O)cc24)CCC3)n1`, the normalised viability in test [1] (10 nM) came to 99%; in test [2] (10 nM) it was 96.2%; in [3] (10 nM), 101%; in test [4] (1 nM) it was 97.7%; in [5] (10 nM), 98.9%; in test [6] (10 nM) it was 122%. Moreover, the normalised viability in test [7] (1 nM) amounted to 96.1%; in [8] (1 nM), 106%; in test [9] (1 nM), 90.5%; in [10] (1 nM), 112%; in test [11] (10 nM) it was 127%; in test [12] (1 nM), 99%. The normalised viability was 107% in [13] (10 nM) and 95.1% in test [14] (10 nM).

For `Cn1cc(CNCC2CCN(c3ncc(C(=O)NO)cn3)CC2)c2ccccc21`, the normalised viability in test [1] (10 nM) is 99.5%; in test [2] (10 nM) it was 86.8%; in [3] (10 nM), 73.7%; in test [4] (1 nM), 90.7%; in test [5] (10 nM), 35.8%; in [6] (10 nM) it was 76.4%. Further, the normalised viability in test [7] (1 nM) was found to be 102%; in [8] (1 nM), 100%; in test [9] (1 nM) it was 89%; in test [10] (1 nM), 86.3%; in [11] (10 nM), 77.9%; in test [12] (1 nM), 98.3%. The values for the normalised viability in test [13] (10 nM) and in test [14] (10 nM) were 78.2% and 58.3%, respectively.

As for `Cc1nc(Nc2ncc(C(=O)Nc3c(C)cccc3Cl)s2)cc(N2CCN(CCO)CC2)n1` [Dasatinib], the normalised viability in test [2] (10 nM) was 77.6% and 80.5%; in [3] (10 nM), 105% and 123%; in test [4] (1 nM), 100% and 99.7%; in test [5] (10 nM), 89.4% and 82.9%; in test [6] (10 nM), 87.7% and 94.3%; in test [7] (1 nM) it was 100% and 106%. The normalised viability in test [8] (1 nM) was 92.8% and 87.5%; in test [9] (1 nM), 105% and 111%; in [10] (1 nM), 100%; in [11] (10 nM) it was 102% and 88.7%; in test [12] (1 nM), 98.7% and 85.7%; in [13] (10 nM), 117% and 108%. For the same molecule, the normalised viability in test [14] (10 nM) is 93.2% and 80.5%.

For `CS(=O)(=O)N1CCN(Cc2cc3nc(-c4cccc5[nH]ncc45)nc(N4CCOCC4)c3s2)CC1` [GDC-0941], the normalised viability was 83.2% in test [1] (100 nM); 89.1% in test [2] (100 nM); 69.2% in test [3] (100 nM); 90.7% in test [4] (10 nM); 58.7% in [5] (100 nM); 99.1% in test [6] (100 nM). The normalised viability in test [7] (10 nM) turned out to be 109%; in test [8] (10 nM) it was 101%; in test [9] (10 nM), 108%; in test [11] (100 nM), 91.6%; in test [12] (10 nM), 85.6%; in test [13] (100 nM), 102%. In addition, the normalised viability in test [14] (100 nM) was found to be 75.5%.

For `O=C1c2c(O)ccc(O)c2C(=O)c2c(NCCNCCO)ccc(NCCNCCO)c21` [Mitoxantrone] (100 nM), the normalised response in [15] amounted to 94.8%; in [16], 158%; in test [17], 91%; in [18], 101%; in test [19] it was 117%; in test [20], 92.8%. Besides, the normalised response turned out to be 101% in test [21]; 99.1% in test [22]; 101% in test [23]; 104% in test [24]; 109% in test [25]; 87.8% in [26]. Also, the normalised response was 82.3% in test [27]; 113% in [28]; 101% in test [29]; 117% in test [30]; -30.1% in [31].

With `O=C1c2c(O)ccc(O)c2C(=O)c2c(NCCNCCO)ccc(NCCNCCO)c21` [Mitoxantrone] (1000 nM), the normalised response in test [15] stood at 119%; in test [16], 217%; in test [17], 112%; in test [18] it was 104%; in [19], 117%; in test [20], 60%. Also, the normalised response in test [21] worked out at 98.8%; in test [22], 94.2%; in [23] it was 88%; in test [24], 112%; in test [25], 119%; in test [26], 78%. Also, the normalised response in test [27] stood at 52.5%; in test [28], 112%; in test [29] it was 95.7%; in test [30], 108%; in test [31], 107%.

For the molecule `Nc1ccccc1NC(=O)c1ccc(CNc2nccc(-c3cccnc3)n2)cc1` [Mocetinostat] (10000 nM), the normalised response in [15] was -24.5%; in test [16], -170%; in test [17], 73.8%; in test [18], -38.3%; in [19], 69.9%; in test [20] it was 7.12%. In addition, the normalised response was -1.8% in [21]; 72.3% in test [22]; 60.3% in test [23]; 92.3% in test [24]; 63.6% in test [25]; -9.9% in test [26]. Moreover, the normalised response is 35.8% in test [27]; 84% in test [28]; 34.8% in test [29]; 34.1% in test [30]; 17.4% in [31].

Turning to `COc1nc(N)nc2c1ncn2[C@@H]1O[C@H](CO)[C@@H](O)[C@@H]1O` [Nelarabine], the normalised viability in test [1] (100 nM) is 92.8% and 89.7%; in test [2] (100 nM) it was 75.9% and 85.7%; in [3] (100 nM) it was 98.1% and 113%; in [4] (10 nM) it was 94.4% and 97.7%; in [6] (100 nM) it was 93.1% and 85.6%; in test [7] (10 nM), 102% and 103%. The normalised viability in test [8] (10 nM) was 82.8% and 82.6%; in [10] (10 nM), 97.4% and 102%; in test [11] (100 nM), 90.6% and 83.6%; in [12] (10 nM) it was 104% and 85.5%; in test [13] (100 nM), 87.4% and 96.1%; in test [14] (100 nM) it was 112% and 101%.

Consider `COc1nc(N)nc2c1ncn2[C@@H]1O[C@H](CO)[C@@H](O)[C@@H]1O` [Nelarabine] (10000 nM), for which the normalised response in [15] was found to be 97.9%; in test [16], 122%; in test [17] it was 96.5%; in [18], 138%; in [19], 94.5%; in test [20], 111%. The normalised response in test [21] was 111%; in [22], 98.5%; in test [23], 87.6%; in test [24] it was 87%; in [25] it was 99.1%; in test [26] it was 91%. Besides, the normalised response in test [27] came to 100%; in test [28], 83.2%; in test [29], 96%; in [30], 87.5%; in [31], 93.8%.
